Assays:
Type in all cases: in vivo
[1] = system: Two-spotted spider mite (Tetranychus urticae), sensitive strain to hexythiazox, pyridaben and/or fenpyroximate; test: Example 5: two-spotted spider mite, sensitive strain, egg/larva efficacy (other ratio)
Source text: (§1) The action to be expected E for a given active ingredient combination obeys the so-called COLBY formula and can be calculated as follows (COLBY, S.R. “Calculating synergistic and antagonistic responses of herbicide combination”. Weeds, Vol. 15, pages 20-22; 1967): • ppm=milligrams of active ingredient (=a.i.) per liter of spray mixture • X=% action by active ingredient A) using p ppm of active ingredient • Y=% action by active ingredient B) using q ppm of active ingredient.
(§2) According to COLBY, the expected (additive) action of active ingredients A)+B) using p+q ppm of active ingredient is
(§3) If the action actually observed (0) is greater than the expected action (E), then the action of the combination is super-additive, i.e. there is a synergistic effect.
(§4) Two-spotted spider mites (sensitive strain to hexythiazox, pyridaben and/or fenpyroximate) were allowed to oviposit on leaves of kidney beans for one day, and the female adults were then removed. The leaves were sprayed by a rotating application tower at 200 ml/m^2 of the predetermined concentration prepared from a product (e.g. the mixture according to the instant invention and the solo active ingredients). Seven days thereafter, the number of unhatched eggs and dead larvae was examined, whereby the live egg rate (%) was determined. The efficacy (observed %) against eggs and larvae is, therefore, calculated based on the following formula: […]
The Example 5 is conducted with use of two-spotted spider mite (sensitive strain to hexythiazox, pyridaben and/or fenpyroximate) in a manner similar to that of Example 1.

[2] = system: Kanzawa spider mite (Tetranychus kanzawai), resistant strain to hexythiazox, pyridaben and/or fenpyroximate; test: Example 4: kanzawa spider mite, resistant strain, egg/larva efficacy
Source text: as §1, §2, §3, §4
The Example 4 is conducted with use of kanzawa spider mite (resistant strain to hexythiazox, pyridaben and/or fenpyroximate) in a manner similar to that of Example 1.

[3] = system: Two-spotted spider mite (Tetranychus urticae), sensitive strain to hexythiazox, pyridaben and/or fenpyroximate; test: Example 1: two-spotted spider mite egg/larva efficacy on sprayed kidney bean leaves; conditions: 7 days after spray
Source text: as §1, §2, §3, §4

[4] = system: Two-spotted spider mite (Tetranychus urticae), resistant strain to hexythiazox, pyridaben and/or fenpyroximate; test: Example 2: two-spotted spider mite, resistant strain, egg/larva efficacy
Source text: as §1, §2, §3, §4
The Example 2 is conducted with use of two-spotted spider mite (resistant strain to hexythiazox, pyridaben and/or fenpyroximate) in a manner similar to that of Example 1.

[5] = system: Kanzawa spider mite (Tetranychus kanzawai), sensitive strain to hexythiazox, pyridaben and/or fenpyroximate; test: Example 3: kanzawa spider mite, sensitive strain, egg/larva efficacy
Source text: as §1, §2, §3, §4
The Example 3 is conducted with use of kanzawa spider mite (sensitive strain to hexythiazox, pyridaben and/or fenpyroximate) in a manner similar to that of Example 1.

| Molecule | observed (%) efficacy against eggs and larvae ([1]; rate 0.19 ppm) [%] | observed (%) efficacy against eggs and larvae ([1]; rate 0.38 ppm) [%] | observed (%) efficacy against eggs and larvae ([2]; rate 0.23 ppm) [%] | observed (%) efficacy against eggs and larvae ([2]; rate 0.45 ppm) [%] | observed (%) efficacy against eggs and larvae ([3]; rate 0.06 ppm) [%] | observed (%) efficacy against eggs and larvae ([3]; rate 0.11 ppm) [%] | observed (%) efficacy against eggs and larvae ([4]; rate 0.23 ppm) [%] | observed (%) efficacy against eggs and larvae ([4]; rate 0.45 ppm) [%] | observed (%) efficacy against eggs and larvae ([5]; rate 0.06 ppm) [%] | observed (%) efficacy against eggs and larvae ([5]; rate 0.11 ppm) [%] | observed (%) efficacy against eggs and larvae ([1]; rate 0.06 ppm) [%] | observed (%) efficacy against eggs and larvae ([1]; rate 0.13 ppm) [%] | observed (%) efficacy against eggs and larvae ([2]; rate 0.63 ppm) [%] | observed (%) efficacy against eggs and larvae ([2]; rate 1.25 ppm) [%] | observed (%) efficacy against eggs and larvae ([3]; rate 0.16 ppm) [%] | observed (%) efficacy against eggs and larvae ([3]; rate 0.31 ppm) [%] | observed (%) efficacy against eggs and larvae ([4]; rate 0.63 ppm) [%] | observed (%) efficacy against eggs and larvae ([4]; rate 1.25 ppm) [%] | observed (%) efficacy against eggs and larvae ([5]; rate 0.16 ppm) [%] | observed (%) efficacy against eggs and larvae ([5]; rate 0.31 ppm) [%] |
| --- | --- | --- | --- | --- | --- | --- | --- | --- | --- | --- | --- | --- | --- | --- | --- | --- | --- | --- | --- | --- |
| abamectin | 8.7 | 5.0 | 6.3 | 43.6 | 0.0 | 9.4 | 0.9 | 6.4 | 2.1 | 1.3 | – | – | – | – | – | – | – | – | – | – |
| CCOc1cc(C(C)(C)C)ccc1C1COC(c2c(F)cccc2F)=N1 (centres unmarked) [Etoxazole, etoxazole] | – | – | – | – | – | – | – | – | – | – | 0.0 | 15.1 | 19.4 | 70.1 | 40.6 | 77.7 | 9.3 | 10.5 | 13.6 | 60.8 |

From patent US20130059730A1, “INSECTICIDAL COMBINATION” (Kyoyu Agri Company, Ltd., priority 2010, published 2013)
